Measurements from the supplement of paper PMC10331698.
± gives the standard deviation of the averaged measurements.

Compound: O=C(O)CCC(F)(C(F)(F)F)C(F)(F)F [4,4-bis(Trifluoromethyl)-4-fluoropropanoic acid] (in DMSO)
Experiment: level (log10 ratio to DMSO vehicle control); higher = higher biomarker level / cell amount than vehicle control
Protocol: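 BioMAP Diversity Plus panel of 12 human primary cell co-culture systems (3C, 4H, LPS, SAg, BT, BF4T, BE3C, CASM3C, HDF3CGF, KF3CT, MyoF, Mphg). Compounds were added 1 h before stimulation and left for 24 h (MyoF 48 h; BT 72 h for soluble read-outs or 6 d for IgG). Biomarkers were read by ELISA, cytotoxicity by SRB, PBMC viability and proliferation by Alamar Blue. Each well value was divided by the mean of 8 DMSO control wells on the same plate and log10 transformed; duplicate blinded samples were tested at 4 concentrations.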

Test System	level (log10) (6700 nM)	level (log10) (20000 nM)	level (log10) (60000 nM)
3C:CD87/uPAR	0.051 ± 0.0057	0.0265 ± 0.0078	0.0295 ± 0.044
3C:CXCL8/IL-8	0.0215 ± 0.039	0.014 ± 0.055	0.0285 ± 0.054
3C:CXCL9/MIG	0.006 ± 0.0071	-0.0075 ± 0.0035	0.0015 ± 0.0064
3C:HLA-DR	-0.0125 ± 0.023	-0.0085 ± 0.012	-0.0065 ± 0.0035
3C:Proliferation	-0.05 ± 0.051	-0.015 ± 0.058	0.0345 ± 0.03
3C:SRB	-0.001 ± 0.0057	0.0045 ± 0.019	0.0125 ± 0.0078
4H:CCL2/MCP-1	0.016 ± 0.024	0.0275 ± 0.03	0.023 ± 0.047
4H:CCL26/Eotaxin-3	-0.0225 ± 0.0064	0.006 ± 0.033	-0.0015 ± 0.049
4H:CD62P/P-selectin	-0.0155 ± 0.022	-0.032 ± 0.031	0.005 ± 0.086
4H:CD87/uPAR	-0.0095 ± 0.056	0.0235 ± 0.035	0.0275 ± 0.067
4H:CD106/VCAM-1	-0.014 ± 0.0042	-0.004	-0.0205 ± 0.022
4H:SRB	-0.008	-0.0125 ± 0.011	0.014 ± 0.02
4H:VEGFR2	0.0265 ± 0.054	0.0195 ± 0.044	0.03 ± 0.045
BE3C:CD54/ICAM-1	-0.007	-0.019 ± 0.014	-0.002 ± 0.0099
BE3C:CD87/uPAR	0.0005 ± 0.028	-0.004 ± 0.044	-0.01 ± 0.0028
BE3C:CXCL8/IL-8	-0.0055 ± 0.011	-0.025 ± 0.033	-0.019 ± 0.033
BE3C:CXCL9/MIG	-0.01 ± 0.014	-0.0085 ± 0.022	-0.0135 ± 0.016
BE3C:CXCL10/IP-10	0.006 ± 0.034	0.0035 ± 0.023	-0.0045 ± 0.0035
BE3C:CXCL11/I-TAC	0.0195 ± 0.016	0.0015 ± 0.012	-0.006 ± 0.0099
BE3C:EGFR	0.003 ± 0.02	-0.0105 ± 0.018	-0.012 ± 0.014
BE3C:HLA-DR	-0.011	-0.0125 ± 0.005	0.0065 ± 0.029
BE3C:IL-1alpha	0.0065 ± 0.022	-0.0105 ± 0.0078	0.007 ± 0.02
BF4T:CCL2/MCP-1	0.016 ± 0.0028	0.026 ± 0.018	0.0015 ± 0.016

Test System	level (log10) (6700 nM)	level (log10) (20000 nM)	level (log10) (60000 nM)
BF4T:CCL26/Eotaxin-3	0.028 ± 0.024	0.004 ± 0.0028	0.0185 ± 0.042
BF4T:CD54/ICAM-1	0.0175 ± 0.013	0.006 ± 0.0071	0.002 ± 0.013
BF4T:CD90	-0.0095 ± 0.026	-0.0055 ± 0.019	0.0005 ± 0.0078
BF4T:CD106/VCAM-1	0.018 ± 0.011	-0.011 ± 0.031	-0.0445 ± 0.0021
BF4T:CXCL8/IL-8	-0.0085 ± 0.03	0.028 ± 0.028	0.0115 ± 0.0021
BF4T:IL-1alpha	-0.0005 ± 0.0092	-0.0135 ± 0.019	0.003 ± 0.031
BF4T:Keratin 8/18	-0.0015 ± 0.0064	-0.032 ± 0.051	-0.0015 ± 0.03
BF4T:MMP-1	-0.0025 ± 0.012	-0.0015 ± 0.00071	-0.004 ± 0.013
BF4T:MMP-3	0.0295 ± 0.022	0.0285 ± 0.00071	0.031 ± 0.052
BF4T:MMP-9	0.0265 ± 0.042	0.0145 ± 0.022	0.015 ± 0.042
BF4T:PAI-I	-0.002 ± 0.014	-0.01 ± 0.013	0.008 ± 0.011
BF4T:SRB	0.0065 ± 0.015	0.0015 ± 0.021	0.02 ± 0.014
BF4T:tPA	-0.0185 ± 0.035	-0.019 ± 0.013	-0.0035 ± 0.023
BF4T:uPA	-0.0015 ± 0.011	-0.0065 ± 0.016	-0.001 ± 0.0042
BT:B cell Proliferation	0.0195 ± 0.0035	-0.0115 ± 0.035	0.0125 ± 0.0035
BT:PBMC Cytotoxicity	0.0145 ± 0.019	-0.0095 ± 0.023	-0.002 ± 0.057
BT:Secreted IgG	0.019 ± 0.017	-0.053 ± 0.062	0.0025 ± 0.005
BT:sIL-2	-0.0855 ± 0.13	0.02 ± 0.12	0.005 ± 0.2
BT:sIL-6	0 ± 0.12	-0.0215 ± 0.069	-0.0665 ± 0.046
BT:sIL-17A	-0.037 ± 0.064	0.087 ± 0.054	-0.019 ± 0.19
BT:sIL-17F	0.064 ± 0.13	0.0385 ± 0.087	-0.005 ± 0.0085
BT:sTNF-alpha	-0.0135 ± 0.22	-0.051 ± 0.12	-0.031 ± 0.16
LPS:CCL2/MCP-1	0.024 ± 0.037	0 ± 0.014	0.0155 ± 0.07

Test System	level (log10) (6700 nM)	level (log10) (20000 nM)	level (log10) (60000 nM)
LPS:CD40	0.005 ± 0.027	-0.0115 ± 0.021	-0.0385 ± 0.0035
LPS:CD62E/E-Selectin	0.0115 ± 0.023	0.0055 ± 0.013	-0.007 ± 0.016
LPS:CD69	-0.0145 ± 0.077	-0.0265 ± 0.015	-0.045 ± 0.025
LPS:CD106/VCAM-1	-0.016 ± 0.034	-0.0255 ± 0.0092	-0.023 ± 0.021
LPS:CD141/Thrombomodulin	-0.0025 ± 0.0035	-0.009 ± 0.028	-0.002 ± 0.0099
LPS:CD142/Tissue Factor	0.045 ± 0.031	0.038 ± 0.059	0.02 ± 0.051
LPS:CXCL8/IL-8	0.011 ± 0.0028	0.007 ± 0.02	0.0135 ± 0.054
LPS:IL-1alpha	0.009 ± 0.072	0.0215 ± 0.022	0.0215 ± 0.032
LPS:M-CSF	-0.0345 ± 0.0021	-0.0145 ± 0.029	-0.0245 ± 0.00071
LPS:SRB	-0.0045 ± 0.0064	-0.0035 ± 0.00071	0.0135 ± 0.0092
LPS:sPGE2	-0.0445 ± 0.019	-0.018 ± 0.033	0.011 ± 0.0085
LPS:sTNF-alpha	-0.046 ± 0.045	-0.013 ± 0.05	-0.003 ± 0.018
SAg:CCL2/MCP-1	0 ± 0.033	-0.0125 ± 0.00071	-0.0125 ± 0.025
SAg:CD38	-0.02 ± 0.047	-0.008 ± 0.013	-0.0025 ± 0.019
SAg:CD40	-0.0495 ± 0.073	-0.0245 ± 0.077	-0.055 ± 0.089
SAg:CD62E/E-Selectin	-0.011 ± 0.011	-0.0025 ± 0.021	-0.013 ± 0.0028
SAg:CD69	-0.0395 ± 0.0021	-0.0205 ± 0.00071	-0.0515 ± 0.046
SAg:CXCL8/IL-8	0.027 ± 0.035	0.0095 ± 0.064	0.019 ± 0.079
SAg:CXCL9/MIG	0.0015 ± 0.0064	0.008 ± 0.0042	0.0035 ± 0.00071
SAg:PBMC Cytotoxicity	0.004 ± 0.0042	-0.0015 ± 0.0092	0.008 ± 0.027
SAg:Proliferation	0.007 ± 0.051	-0.03 ± 0.044	0.0375 ± 0.053
SAg:SRB	-0.0035 ± 0.0078	0.006 ± 0.0042	0.003 ± 0.016
